Test results published in US11033629B2, “Oral formulations of kappa opioid receptor agonists” (Cara Therapeutics, Inc., priority 2018, dated 2021).

Assay: Intravenous delivery of CR845 to canines (composite IV data from five studies, reference for bioavailability)
Conditions: dog, in vivo, average dose 0.029±0.029 mg/kg, ten kilogram dogs, thirty-six canines
Experimental: Each capsule of prototype formulation 1 contained: 1.6 mg spray dried CR845 in 90% Miglyol 812, 10% sodium caprate. Each capsule of prototype formulation 2 contained: 1.6 mg crystallized CR845 in 90% Miglyol 812, 10% sodium caprate. Each capsule of prototype formulation 3 contained: 1.6 mg spray dried CR845 in 90% Miglyol 812, 10% capric acid. Each capsule of prototype formulation 4 contained: 1.6 mg spray dried CR845 in 70% Miglyol 812 in 30% capric acid. Bioavailability (% f) is expressed as a percent of CR845 observed (calculated from the area under the curve: AUC) as compared with the total CR845 AUC observed after intravenous delivery of the same dose. Composite IV data from five separate studies with thirty-six canines was averaged and used for bioavailability calculations. […] The observed avg.

## CC(C)C[C@@H](NC(=O)[C@@H](Cc1ccccc1)NC(=O)[C@H](N)Cc1ccccc1)C(=O)N[C@H](CCCCN)C(=O)N1CCC(N)(C(=O)O)CC1 [CR845, D-Phe-D-Phe-D-Leu-D-Lys-[ω(4-aminopiperidine-4-carboxylic acid)]-OH]
  Cmax: 163 ± 39.2 ng/mL
